Experimental data from publication PMC8972069 (Nuclear medicine and biology, 2020).

Experiments:
[1] = biological target: T1, human recombinant S1PR4 lysophospholipid receptor membrane (Homo sapiens, UniProt O95977); test: [^32P]S1P competitive binding assay, S1PR4
T1 sequence (O95977 1-384): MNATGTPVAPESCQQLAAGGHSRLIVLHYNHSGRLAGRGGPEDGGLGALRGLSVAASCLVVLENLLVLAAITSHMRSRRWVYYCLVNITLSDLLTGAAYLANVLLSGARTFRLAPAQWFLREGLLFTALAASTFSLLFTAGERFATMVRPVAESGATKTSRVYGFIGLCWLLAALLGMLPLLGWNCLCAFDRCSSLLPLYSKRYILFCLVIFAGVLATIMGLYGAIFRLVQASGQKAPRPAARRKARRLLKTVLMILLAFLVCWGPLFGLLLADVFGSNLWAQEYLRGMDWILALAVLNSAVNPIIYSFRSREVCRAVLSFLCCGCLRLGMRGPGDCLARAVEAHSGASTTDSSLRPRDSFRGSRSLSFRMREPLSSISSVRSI

[2] = biological target: Human recombinant S1PR3 lysophospholipid receptor membrane (Homo sapiens, UniProt Q99500); test: [^32P]S1P competitive binding assay, S1PR3
[3] = biological target: Human recombinant S1PR5 lysophospholipid receptor membrane (Homo sapiens, UniProt Q9H228); test: [^32P]S1P competitive binding assay, S1PR5
[4] = biological target: Human recombinant S1PR1 lysophospholipid receptor membrane (Homo sapiens, UniProt P21453); test: [^32P]S1P competitive binding assay, S1PR1

Measured: IC50

Human recombinant S1PR3 lysophospholipid receptor membrane, sequence (Q99500 whole entry): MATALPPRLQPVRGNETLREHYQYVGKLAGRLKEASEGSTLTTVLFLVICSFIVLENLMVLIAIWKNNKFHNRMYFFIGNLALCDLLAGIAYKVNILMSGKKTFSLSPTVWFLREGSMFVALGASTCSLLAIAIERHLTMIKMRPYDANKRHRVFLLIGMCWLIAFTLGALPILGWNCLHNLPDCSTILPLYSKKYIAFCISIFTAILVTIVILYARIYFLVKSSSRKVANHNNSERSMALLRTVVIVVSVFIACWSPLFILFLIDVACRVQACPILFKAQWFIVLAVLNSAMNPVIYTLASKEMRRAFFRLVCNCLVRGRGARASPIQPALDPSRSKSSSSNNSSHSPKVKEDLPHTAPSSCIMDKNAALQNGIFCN
Human recombinant S1PR1 lysophospholipid receptor membrane, sequence (P21453 whole entry): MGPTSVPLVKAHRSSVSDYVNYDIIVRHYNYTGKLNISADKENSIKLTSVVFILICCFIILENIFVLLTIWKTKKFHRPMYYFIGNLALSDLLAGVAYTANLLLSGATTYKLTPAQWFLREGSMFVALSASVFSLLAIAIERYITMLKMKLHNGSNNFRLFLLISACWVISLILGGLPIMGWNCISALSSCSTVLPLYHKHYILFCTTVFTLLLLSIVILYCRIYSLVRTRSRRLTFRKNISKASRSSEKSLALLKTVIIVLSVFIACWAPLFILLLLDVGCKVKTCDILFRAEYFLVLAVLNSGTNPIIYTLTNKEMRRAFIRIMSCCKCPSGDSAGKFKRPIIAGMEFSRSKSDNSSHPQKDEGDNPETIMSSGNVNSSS
Human recombinant S1PR5 lysophospholipid receptor membrane, sequence (Q9H228 whole entry): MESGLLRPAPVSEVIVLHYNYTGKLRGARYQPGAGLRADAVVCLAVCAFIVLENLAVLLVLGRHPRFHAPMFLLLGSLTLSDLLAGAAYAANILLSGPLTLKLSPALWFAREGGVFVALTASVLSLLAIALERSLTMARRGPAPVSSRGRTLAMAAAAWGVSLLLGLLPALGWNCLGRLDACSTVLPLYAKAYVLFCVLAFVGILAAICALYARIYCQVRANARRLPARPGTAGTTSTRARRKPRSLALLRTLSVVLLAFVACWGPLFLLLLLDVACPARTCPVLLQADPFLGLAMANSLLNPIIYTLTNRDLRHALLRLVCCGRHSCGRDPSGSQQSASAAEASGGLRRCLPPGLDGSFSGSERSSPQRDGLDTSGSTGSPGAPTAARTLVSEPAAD

COc1ccc(NC(=O)Cn2c(=O)c3ccccc3n(CC(=O)Nc3cc(I)c(OC)cc3OC)c2=O)cc1 [TZ6544, N-(5-iodo-2,4-dimethoxyphenyl)-2-(3-(2-((4-methoxyphenyl)amino)-2-oxoethyl)-2,4-dioxo-3,4-dihydroquinazolin-1(2H)-yl)acetamide]
> 1000 nM: all assays above
